The text below walks through data of patent publication US7037502B2, “Peptide with the amino acid sequence of KVLDGQDP having anti-inflammatory properties” (priority 2001, dated 2006).

The subject of assay [1] is allergic conjunctivitis to ragweed (Ambrosia trifida). Description: Allergic conjunctivitis to ragweed in guinea pig: clinical scores (conjunctival edema and redness). Format: in vivo, Hartley female guinea pig. The settings on record: for Statistical evaluation of clinical scores (Mann-Whitney test), P compared to Dexamethasone / Statistical evaluation of clinical scores (Mann-Whitney test), P compared to Livostine / Statistical evaluation of clinical scores (Mann-Whitney test), P compared to No treatment group: conjunctival edema and redness score 0-4+, 20 min after allergen challenge, 12 eyes per group, eye drops; for Clinical signs (conjunctival redness and edema scores), result in words: n=12, P<0.01, SD<10%, Mann-Whitney test. On the procedure:
The peptides of the present invention were analyzed in experimental model of allergic conjunctivitis to ragweed (giant ragweed; Ambrosia trifida) in guinea pig. Hartley strain of guinea pig was selected according to previous reports of conjunctival anaphylaxis (Calonge M., et al., Acta Ophthalmol 68; 470–476, 1990) and females were chosen based on the sex dimorphism of ocular mucosal immunity with the protective role of male hormones (Saruya S., et al., Act Soc Ophthalmol Jap 72; 833–845, 1968). The conjunctival redness and edema are main signs of seasonal allergic conjunctivitis and eosionphil infiltration is the hallmark of the conjunctival histology in patients with allergic conjunctivitis (Abelson M B., et al., Arch Ophthalmol. 101; 555–556, 1983; Butrus S I., et al., Int. Ophthalmol. Clin. 28; 324–328, 1988) 86 Hartley female guinea pigs, 200–250 g were housed in the animal facilities of the Asan Institute for Life Sciences (Korea), given guinea pig chow and water ad libitum, and cared for in accordance with the Declaration of Helsinki and the National Institute of Health Guide to the Care and Use of the Laboratory Animals (Korea). […] On day 15, immunized guinea pigs were divided 14 groups, 6 for each group. 11 anti-inflammatory peptides including new recombinants, dexamethasone eye drop (Maxidex, 0.1% dexamethasone, Alcon) and anti-histamine eye drop (Livostin, levocabastine, Janssen) were used for 13 groups, and no treatment for one group. Normal controls were employed as 6 non-immunized and non-treated guinea pigs. […] All the procedures were followed experimental model of allergic conjunctivitis described by Merayo-Lloves et al (Experimental model of allergic conjunctivitis to ragweed in guinea pig. Curr. Eye Res. 14; 487–494, 1995). Anti-inflammatory peptides were resolved in sterile saline (100 μmol/40 μl concentration). All peptides and dexamethasone eye solutions were challenged 3 hour prior to the last pollen application on day 15, 10 minutes after pollen application, and 4 times thereafter at the 3 hour interval. Conjunctival edema and redness were judged in room light and under an operating microscope (Zeiss, Germany). The evaluation was performed in a masked fashion at 20 min after allergen challenge and each clinical sign was scored on a scale 0–4+ (0 absent, 1+ minimal, 2+ mild, 3+ moderate, 4+ severe), adapted for guinea pig from previous report (Merayo-Lloves et al: Experimental model of allergic conjunctivitis to ragweed in guinea pig. Curr. Eye Res. 14; 487–494, 1995). Clinical scores of each group (12 eyes in each group) were analyzed.

Assay [2] has as its system eosinophil infiltration of conjunctiva. In words: Allergic conjunctivitis to ragweed in guinea pig: histology, eosinophil count in conjunctiva. The assay is classed as in vivo, Hartley female guinea pig. The note with it: for Statistical evaluation of eosinophil count (Mann-Whitney test), P compared to Dexamethasone / Statistical evaluation of eosinophil count (Mann-Whitney test), P compared to Livostine / Statistical evaluation of eosinophil count (Mann-Whitney test), P compared to No treatment group: eosinophils in three fields of conjunctiva (×400), 12 eyes per group, eye drops. On the procedure: The peptides of the present invention were analyzed in experimental model of allergic conjunctivitis to ragweed (giant ragweed; Ambrosia trifida) in guinea pig. Hartley strain of guinea pig was selected according to previous reports of conjunctival anaphylaxis (Calonge M., et al., Acta Ophthalmol 68; 470–476, 1990) and females were chosen based on the sex dimorphism of ocular mucosal immunity with the protective role of male hormones (Saruya S., et al., Act Soc Ophthalmol Jap 72; 833–845, 1968). The conjunctival redness and edema are main signs of seasonal allergic conjunctivitis and eosionphil infiltration is the hallmark of the conjunctival histology in patients with allergic conjunctivitis (Abelson M B., et al., Arch Ophthalmol. 101; 555–556, 1983; Butrus S I., et al., Int. Ophthalmol. Clin. 28; 324–328, 1988)
86 Hartley female guinea pigs, 200–250 g were housed in the animal facilities of the Asan Institute for Life Sciences (Korea), given guinea pig chow and water ad libitum, and cared for in accordance with the Declaration of Helsinki and the National Institute of Health Guide to the Care and Use of the Laboratory Animals (Korea).
On day 15, immunized guinea pigs were divided 14 groups, 6 for each group. 11 anti-inflammatory peptides including new recombinants, dexamethasone eye drop (Maxidex, 0.1% dexamethasone, Alcon) and anti-histamine eye drop (Livostin, levocabastine, Janssen) were used for 13 groups, and no treatment for one group. Normal controls were employed as 6 non-immunized and non-treated guinea pigs. […] All the procedures were followed experimental model of allergic conjunctivitis described by Merayo-Lloves et al (Experimental model of allergic conjunctivitis to ragweed in guinea pig. Curr. Eye Res. 14; 487–494, 1995).
Anti-inflammatory peptides were resolved in sterile saline (100 μmol/40 μl concentration). All peptides and dexamethasone eye solutions were challenged 3 hour prior to the last pollen application on day 15, 10 minutes after pollen application, and 4 times thereafter at the 3 hour interval.
The orbits were excentrated after the animals were killed with CO2 asphyxia, and specimens were prepared for light microscopic examination. Sectioned specimens were stained with hematoxylin-eosin.
Eosinophils in the standardized fields of conjunctival epithelium, the immediate subepithelial, and the stroma were counted in three non-consecutive fields (magnification ×400) for each treatment in each experiment (12 eyes in each group).

Another assay addresses PLA2 (Sus scrofa, UniProt P00592). The settings on record: Miele et al., Nature 335, 726-730, 1988; cited from earlier work.

“Also recorded” adds a separate entry of the source.

Chain of PLA2 (P00592 23-146): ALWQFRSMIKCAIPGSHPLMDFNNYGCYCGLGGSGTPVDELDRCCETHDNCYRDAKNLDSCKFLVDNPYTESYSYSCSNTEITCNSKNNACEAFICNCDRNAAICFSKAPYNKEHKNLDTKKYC

In the case of “HDMNKVLDL [Peptide A2, known peptide, antiflammin]”, in assay [1], the “Statistical evaluation of clinical scores (Mann-Whitney test), P compared to Dexamethasone” value is reported as 0.002; the “Statistical evaluation of clinical scores (Mann-Whitney test), P compared to Livostine” value stood at 0.003; the “Statistical evaluation of clinical scores (Mann-Whitney test), P compared to No treatment group” value is given as 0.382. In addition, in assay [2], the “Statistical evaluation of eosinophil count (Mann-Whitney test), P compared to Dexamethasone” value is recorded as 0.000; the “Statistical evaluation of eosinophil count (Mann-Whitney test), P compared to Livostine” value was determined as 0.000; the “Statistical evaluation of eosinophil count (Mann-Whitney test), P compared to No treatment group” value stood at 0.161.

“SHLRKVFDK [Peptide A1, known peptide, antiflammin]”: in assay [1], the “Statistical evaluation of clinical scores (Mann-Whitney test), P compared to Dexamethasone” value was found to be 0.007; the “Statistical evaluation of clinical scores (Mann-Whitney test), P compared to Livostine” value was 0.009; the “Statistical evaluation of clinical scores (Mann-Whitney test), P compared to No treatment group” value was 0.003; the “Clinical signs (conjunctival redness and edema scores), result in words” value (from here on “Clinical signs”) was “statistically significant difference from other groups”. Further, in assay [2], the “Statistical evaluation of eosinophil count (Mann-Whitney test), P compared to Dexamethasone” value amounted to 0.004; the “Statistical evaluation of eosinophil count (Mann-Whitney test), P compared to Livostine” value amounted to 0.006; the “Statistical evaluation of eosinophil count (Mann-Whitney test), P compared to No treatment group” value is listed as 0.000.

With GQDP [Peptide E3], in assay [1], the “Statistical evaluation of clinical scores (Mann-Whitney test), P compared to Dexamethasone” value worked out at 0.000; the “Statistical evaluation of clinical scores (Mann-Whitney test), P compared to Livostine” value is 0.002; the “Statistical evaluation of clinical scores (Mann-Whitney test), P compared to No treatment group” value was 0.016. Further, in assay [2], the “Statistical evaluation of eosinophil count (Mann-Whitney test), P compared to Dexamethasone” value stood at 0.007; the “Statistical evaluation of eosinophil count (Mann-Whitney test), P compared to Livostine” value amounted to 0.000; the “Statistical evaluation of eosinophil count (Mann-Whitney test), P compared to No treatment group” value came out at 0.001.

As to “DPVKG [Peptide E2, synthetic peptide of the invention]”, in assay [1], the “Statistical evaluation of clinical scores (Mann-Whitney test), P compared to Dexamethasone” value is recorded as 0.050; the “Statistical evaluation of clinical scores (Mann-Whitney test), P compared to Livostine” value turned out to be 0.039; the “Statistical evaluation of clinical scores (Mann-Whitney test), P compared to No treatment group” value came to 0.000; the “Clinical signs” value was “statistically significant difference from other groups”. For the same compound, the “Anti-inflammatory activity, overall conclusion in words” value in assay [2] (allergic conjunctivitis model in guinea pig, summary of Example 2, listed as SEQ ID NO:3) is listed as “excellent anti-inflammatory activity in comparison with other known peptide sequences; also recorded: much higher activity than the steroidal anti-inflammatory dexamethasone”. Besides, in assay [2], the “Statistical evaluation of eosinophil count (Mann-Whitney test), P compared to Dexamethasone” value stood at 0.028; the “Statistical evaluation of eosinophil count (Mann-Whitney test), P compared to Livostine” value is on record as 0.060; the “Statistical evaluation of eosinophil count (Mann-Whitney test), P compared to No treatment group” value came to 0.000. Moreover, the “Histological signs (eosinophil infiltration), result in words” value in assay [2] (n=12, P<0.01, SD<10%, Mann-Whitney test) is listed as “statistically significant difference from other groups”.

In the case of “MQMKKVLDS [Peptide A3, known peptide, antiflammin]”, in assay [1], the “Statistical evaluation of clinical scores (Mann-Whitney test), P compared to Dexamethasone” value is on record as 0.089; the “Statistical evaluation of clinical scores (Mann-Whitney test), P compared to Livostine” value turned out to be 0.043; the “Statistical evaluation of clinical scores (Mann-Whitney test), P compared to No treatment group” value turned out to be 0.000; the “Clinical signs” value was “statistically significant difference from other groups”. In assay [2], the “Statistical evaluation of eosinophil count (Mann-Whitney test), P compared to Dexamethasone” value is listed as 0.000; the “Statistical evaluation of eosinophil count (Mann-Whitney test), P compared to Livostine” value is on record as 0.000; the “Statistical evaluation of eosinophil count (Mann-Whitney test), P compared to No treatment group” value was 0.007.

As for GTLAKKLT [Peptide P2], in assay [1], the “Statistical evaluation of clinical scores (Mann-Whitney test), P compared to Dexamethasone” value came to 0.000; the “Statistical evaluation of clinical scores (Mann-Whitney test), P compared to Livostine” value worked out at 0.000; the “Statistical evaluation of clinical scores (Mann-Whitney test), P compared to No treatment group” value is recorded as 0.279. Further, in assay [2], the “Statistical evaluation of eosinophil count (Mann-Whitney test), P compared to Dexamethasone” value is reported as 0.000; the “Statistical evaluation of eosinophil count (Mann-Whitney test), P compared to Livostine” value is on record as 0.000; the “Statistical evaluation of eosinophil count (Mann-Whitney test), P compared to No treatment group” value is 0.004.

As for PVKG [Peptide E1], in assay [1], the “Statistical evaluation of clinical scores (Mann-Whitney test), P compared to Dexamethasone” value turned out to be 0.017; the “Statistical evaluation of clinical scores (Mann-Whitney test), P compared to Livostine” value is reported as 0.012; the “Statistical evaluation of clinical scores (Mann-Whitney test), P compared to No treatment group” value was found to be 0.001; the “Clinical signs” value is recorded as “statistically significant difference from other groups”. Also, in assay [2], the “Statistical evaluation of eosinophil count (Mann-Whitney test), P compared to Dexamethasone” value is reported as 0.000; the “Statistical evaluation of eosinophil count (Mann-Whitney test), P compared to Livostine” value is given as 0.000; the “Statistical evaluation of eosinophil count (Mann-Whitney test), P compared to No treatment group” value turned out to be 0.002.

For `C[C@@H]1C[C@H]2[C@@H]3CCC4=CC(=O)C=C[C@]4(C)[C@@]3(F)[C@@H](O)C[C@]2(C)[C@@]1(O)C(=O)CO` [Dexamethasone, dexamethasone], in assay [1], the “Statistical evaluation of clinical scores (Mann-Whitney test), P compared to No treatment group” value stood at 0.000. Also, in assay [2], the “Statistical evaluation of eosinophil count (Mann-Whitney test), P compared to Livostine” value turned out to be 0.932 and the “Statistical evaluation of eosinophil count (Mann-Whitney test), P compared to No treatment group” value is recorded as 0.000.

For “KVLD [Peptide A4, core tetrapeptide of antiflammins]”, in assay [1], the “Statistical evaluation of clinical scores (Mann-Whitney test), P compared to Dexamethasone” value turned out to be 0.000; the “Statistical evaluation of clinical scores (Mann-Whitney test), P compared to Livostine” value worked out at 0.000; the “Statistical evaluation of clinical scores (Mann-Whitney test), P compared to No treatment group” value is listed as 0.082. In the assay with PLA2, the “PLA2 inhibitor activity, in words” value was “inactive”. Besides, in assay [2], the “Statistical evaluation of eosinophil count (Mann-Whitney test), P compared to Dexamethasone” value worked out at 0.028; the “Statistical evaluation of eosinophil count (Mann-Whitney test), P compared to Livostine” value is 0.045; the “Statistical evaluation of eosinophil count (Mann-Whitney test), P compared to No treatment group” value was 0.001.

For the compound RKLMEI (PKLMEI) [Peptide P1], in assay [1], the “Statistical evaluation of clinical scores (Mann-Whitney test), P compared to Dexamethasone” value turned out to be 0.001; the “Statistical evaluation of clinical scores (Mann-Whitney test), P compared to Livostine” value is 0.003; the “Statistical evaluation of clinical scores (Mann-Whitney test), P compared to No treatment group” value amounted to 0.009; the “Clinical signs” value is “statistically significant difference from other groups”. Further, in assay [2], the “Statistical evaluation of eosinophil count (Mann-Whitney test), P compared to Dexamethasone” value is 0.000; the “Statistical evaluation of eosinophil count (Mann-Whitney test), P compared to Livostine” value is 0.000; the “Statistical evaluation of eosinophil count (Mann-Whitney test), P compared to No treatment group” value is given as 0.002.
